Laboratory results published in US10751379B2, “Method for preparing anti-obesity composition by using astringent persimmons and mandarin peels” (INDUSTRY ACADEMIC COORPERATION FOUNDATION DAEGU HAANY …, priority 2016, dated 2020).
In brackets after ≈: the same amount, converted by molar mass.

Legend:
pancreatic lipase enzyme = target: T1, pancreatic lipase enzyme (Homo sapiens, UniProt P16233); conditions: background statement; cited from earlier work
T1 sequence (P16233 17-465): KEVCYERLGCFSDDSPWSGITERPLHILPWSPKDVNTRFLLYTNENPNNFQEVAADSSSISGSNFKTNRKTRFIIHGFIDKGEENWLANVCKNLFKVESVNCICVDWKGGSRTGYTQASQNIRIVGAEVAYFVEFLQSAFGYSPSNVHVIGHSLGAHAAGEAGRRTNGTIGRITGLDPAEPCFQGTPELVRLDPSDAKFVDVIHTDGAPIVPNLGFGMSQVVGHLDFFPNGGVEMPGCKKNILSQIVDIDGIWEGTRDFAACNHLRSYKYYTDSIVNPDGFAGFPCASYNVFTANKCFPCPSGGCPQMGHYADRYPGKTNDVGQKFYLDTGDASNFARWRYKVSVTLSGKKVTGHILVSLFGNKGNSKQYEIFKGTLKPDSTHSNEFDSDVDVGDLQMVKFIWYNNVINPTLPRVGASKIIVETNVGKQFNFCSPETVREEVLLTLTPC

[1] = system: HFD-induced obesity in mice; test: Serum lipid profiles in HFD-induced obesity mice, 6 weeks; assay type: in vivo, ICR mice; conditions: Orlistat orally daily for 6 weeks
Protocol: Male healthy 4-week-old ICR mice (about 30-32 g) were purchased from Orient (Gyeonggi-do, Korea). Each mouse was kept at room temperature (22±3° C.) and humidity (55±5%) with a 12-h light/dark cycle. The experiments were approved by the Ethics Committee of Animal Experimentation of the University of Daegu Haany. The mice were allowed free access to laboratory pellet chow and water ad libitum. After adaptation (1 week), all experimental mice except normal mice (n=8) were fed with 60% high-fat diet (HFD; Diet 12492, Research Diets, Inc., 105 New Brunswick, N.J., USA) for 5 days to adapt to a feed. Thereafter, ICR mice (n=32) fed 60% HFD were randomly divided into four groups (HFD control group, orlistat group, and two PCM treatment groups (50 and 200 mg/kg/day))(in each group n=8). The normal group is supplied with a normal feed and the rest of the groups are supplied with 60% HFD until the end of experiment. The normal and HFD control groups were given water using a stomach tube, while the drug treatment groups were orally given Orlistat or PCM daily using a stomach tube for 6 weeks. After administration for 6 weeks, each mouse was sacrificed after fasting for 12 hours. The blood was immediately centrifuged for 10 minutes at 4° C. Serum triglyceride and total cholesterol were conducted spectrophotometrically using commercially available kits (Wako Pure Chemical Industries, Ltd., Osaka, Japan). HDL-cholesterol is measured using a commercial kit from Asan Pharm Co., Ltd. (Hwaseong-si, Korea, Cat AM203). LDL-cholesterol levels are calculated though TG, TC and HDL levels, and the following formula.

[2] = system: HFD-induced obesity in mice; test: Body weight and visceral fat in HFD-induced obesity mice, 6 weeks; assay type: in vivo, ICR mice
Protocol: Male healthy 4-week-old ICR mice (about 30-32 g) were purchased from Orient (Gyeonggi-do, Korea). Each mouse was kept at room temperature (22±3° C.) and humidity (55±5%) with a 12-h light/dark cycle. […] The mice were allowed free access to laboratory pellet chow and water ad libitum. After adaptation (1 week), all experimental mice except normal mice (n=8) were fed with 60% high-fat diet (HFD; Diet 12492, Research Diets, Inc., 105 New Brunswick, N.J., USA) for 5 days to adapt to a feed. Thereafter, ICR mice (n=32) fed 60% HFD were randomly divided into four groups (HFD control group, orlistat group, and two PCM treatment groups (50 and 200 mg/kg/day))(in each group n=8). The normal group is supplied with a normal feed and the rest of the groups are supplied with 60% HFD until the end of experiment. The normal and HFD control groups were given water using a stomach tube, while the drug treatment groups were orally given Orlistat or PCM daily using a stomach tube for 6 weeks. After administration for 6 weeks, each mouse was sacrificed after fasting for 12 hours. The blood was immediately centrifuged for 10 minutes at 4° C.

[3] = target: T2, porcine pancreatic lipase (Sus scrofa, UniProt P00591); test: Pancreatic lipase inhibition (p-NPB hydrolysis); assay type: biochemical; conditions: PCM 100-1000 μg/mL, orlistat 0.1-1 μg/mL, n=4
T2 construct: purchased Sigma-Aldrich Co. Type 2 (catalogue number not given)
T2 sequence (P00591 1-450): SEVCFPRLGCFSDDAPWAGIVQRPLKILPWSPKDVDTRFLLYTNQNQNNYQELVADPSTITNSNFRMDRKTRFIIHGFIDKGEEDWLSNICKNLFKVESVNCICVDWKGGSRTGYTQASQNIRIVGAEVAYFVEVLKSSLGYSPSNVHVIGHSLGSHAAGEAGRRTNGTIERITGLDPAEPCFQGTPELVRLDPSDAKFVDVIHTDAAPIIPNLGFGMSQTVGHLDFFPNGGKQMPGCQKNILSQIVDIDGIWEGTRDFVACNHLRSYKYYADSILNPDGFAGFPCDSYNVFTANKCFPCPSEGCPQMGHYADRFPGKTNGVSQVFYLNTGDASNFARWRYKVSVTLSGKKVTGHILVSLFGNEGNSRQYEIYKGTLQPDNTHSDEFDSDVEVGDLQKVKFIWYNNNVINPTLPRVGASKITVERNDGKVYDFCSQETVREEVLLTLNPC

ABTS radical inhibition = assay type: biochemical; conditions: 15 minutes at room temperature in the dark, 750 nm
Protocol: ABTS inhibition of the different extracts was measured according to the modified method of Park et al. ABTS stock solution was dissolved in water to 7.4 mM concentration. The ABTS radical cation (ABTS) was produced by reacting ABTS stock solution with 2.45 mM potassium persulfate and allowing the mixture to stand for 14 hours at room temperature in the dark. The ABTS solution was diluted with ethanol to obtain an absorbance of 0.70±0.02 at 750 nm. After adding diluted ABTS solution to PCM solution, the mixture was left standing at room temperature for 15 minutes in the dark. The ascorbic acid (standard sample) was prepared for eight concentrations (0.5, 1, 2, 5, 10, 20, 50, and 200 μg/mL). The absorbance at 750 nm was measured using a microplate reader (M200 PRO, Tecan, Austria). The blank was prepared in the same manner, except that distilled water was used instead of the sample. The radical scavenging activity was calculated using the following formula. ABTS radical scavenging activity (%)=[1(Asample/Ablank)]×100

[4] = DPPH radical inhibition (antioxidant activity); assay type: biochemical; conditions: 60 μM DPPH, 30 minutes at 25° C., 540 nm
Protocol: The ascorbic acid (standard sample) was prepared for eight concentrations (0.5, 1, 2, 5, 10, 20, 50, and 200 μg/mL). The reaction mixture was stored in the dark at 25° C. for 30 minutes. The optical density was determined using a microplate reader (M200 PRO, Tecan, Austria). The mixture was measured spectrophotometrically using 540 nm. The antioxidant activity of each sample was expressed in terms of IC50 (micromolar concentration required to inhibit DPPH radical formation by 50%, calculated from the log-dose inhibition curve). Antioxidant activity was expressed in terms of IC50, and a lower IC50 value corresponds to a large inhibition. The radical scavenging activity was calculated using the following formula. DPPH radical scavenging activity (%)=[1(Asample/Ablank)]×100

[5] = Orlistat orally daily for 6 weeks

Compound	prevention of absorption of dietary fat (pancreatic lipase enzyme)	side effects (pancreatic lipase enzyme)	LDL-cholesterol level ([1]; calculated from TG, TC, HDL)	TC level ([1]; serum)	TG level ([1]; serum)	Weight Amount of change [2, 5]	Weight Final [2, 5]	visceral fat weight compared with HFD control mice ([2]; Orlistat, 6 weeks)	lipase inhibition versus dose (FIG. 2) [3]	IC50 value against the ABTS (ABTS radical inhibition)	IC50 of DPPH inhibition [4]
CCCCCCCCCCC[C@@H](C[C@@H]1OC(=O)[C@H]1CCCCCC)OC(=O)[C@H](CC(C)C)NC=O [Orlistat]	approximately 30%	severe gastrointestinal side effects	at the same level as normal food-supplied mice	at the same level as normal food-supplied mice	at the same level as normal food-supplied mice	8.21 ± 1.82 g/6 weeks	44.92 ± 1.62 g	significantly decreased	did not rise at least a certain concentration	–	–
O=C1O[C@H]([C@@H](O)CO)C(O)=C1O [ascorbic acid]	–	–	–	–	–	–	–	–	–	2.27 ± 0.19 µg/mL (≈ 12.9 µM)	1.26 ± 0.02 µg/mL
